From patent US9474730B2, “Methods and compositions for use with K-ras mediated disorders” (Board of Regents of the University of Texas System, priority 2012, dated 2016) come the findings set out here.

Structures are written as SMILES.

Series [1] deals with T1, GFP-CTH (mGFP-tagged C-terminal region of H-ras) in MDCK cells (Homo sapiens, UniProt P01112).
T1 construct: hypervariable region of H-ras (amino acids 166-189) cloned onto the carboxy terminus of monomeric GFP; expressed in transfected cells
In words: High throughput cell-based screen: plasma membrane localization of GFP-CTH. As to conditions: positive control. The arrangement: species or system canine.

Series [2] addresses T2, GFP-K-rasG12V in MDCK or BHK cells (Homo sapiens, UniProt P01116, G12V).
T2 construct: MDCK and BHK cells expressing GFP-tagged full length constitutively active Ras (G12V) proteins; expressed in transfected cells
Briefly: Cellular fractionation (P100/S100) with quantitative Western blotting, GFP-K-rasG12V. It counts as cell-based, canine (MDCK), hamster (BHK). As to conditions: 48 hours. On the procedure:
Following treatment, membrane (P100) and soluble (S100) protein fractions were prepared and analyzed by quantitative Western blotting.
(§1) Preparation of whole-cell lysates: cells were lysed in Buffer B (50 mM Tris [pH 7.5], 75 mM NaCl, 25 mM NaF, 5 mM MgCl2, 5 mM EGTA, 1 mM dithiothreitol, 100 μM NaVO4, 1% Nonidet P-40 plus protease inhibitors). Cellular fractionation: cells were incubated in Buffer A (10 mm Tris-HCl, pH 7.5, 25 mm NaF, 5 mm MgCl2, 1 mm EGTA, 1 mm dithiothreitol, 100 μm NaVO4 plus protease inhibitors) for 30 minutes on ice and lysed by passing through a 27 G needle 30 times. The post nuclear supernatant was centrifuged at 100,000 g for 30 minutes and the membrane pellet was resuspended in Buffer A containing 1% Triton X-100.
(§2) SDS-PAGE and Western blotting with the specified antibody were performed using 20 μg of each whole cell lysate/P100 fraction and volumes of S100 equal to that of the corresponding P100. Signal was detected by enhanced chemiluminescence (SuperSignal; Pierce, Thermo Fisher Scientific, Rockford, Ill.) and imaged by FluorChemQ (Alpha Inotech, San Leandro, Calif., USA). Quantification of intensities was performed using FluorChemQ software.
Background: In western blotting, separated proteins are transferred to a membrane and probed.

The test system of series [3] is BHK cells stably expressing K-rasG12V. In words: Signaling downstream of oncogenic K-ras by quantitative Western blotting. It counts as cell-based, hamster. As to conditions: other Ca2+ channel blockers and ionomycin. On the procedure:
FIG. 5: Illustrates that fendiline HCl inhibits Raf kinase activity and signaling downstream of oncogenic K-ras: BHK cells stably expressing K-rasG12V were treated with vehicle or fendiline HCl (6 μg/mL) for 48 h. (A) Raf kinase activity in membrane fractions prepared from the cells was measured in a coupled […] kinase assay. Data is shown as mean±SEM from 3 independent experiments. (B) ppMEK and ppERK in soluble protein fraction and pAkt levels in membrane protein fraction were measured by quantitative Western blotting. Actin and Akt were used as loading controls for soluble and membrane fractions, respectively. A representative blots are shown. Data is shown as mean±SEM from 3-4 independent experiments. Statistical significance was calculated using one way ANOVA and Student's T-test. (*=p<0.05), wherein experimentation was performed in accordance with principles described herein;
as §1
Quantification of intensities was performed using FluorChemQ software.

The subject of series [4] is MAPK activation (pERK) in Hec1A cells. As to conditions: 48 h. On the procedure:
as §2

For series [5], the target named is T3, GFP-CTK (mGFP-tagged C-terminal region of K-ras) in MDCK cells (Homo sapiens, UniProt P01116).
T3 construct: hypervariable region of K-ras (amino acids 166-188) cloned onto the carboxy terminus of GFP; expressed in transfected cells
In words: High throughput cell-based screen: plasma membrane localization of GFP-CTK. The arrangement: species or system canine. As to conditions: positive control, 250 ng/mL UCN-01, MDCK. On the procedure: FIG. 1: Illustrates results of a high throughput cell-based screening of chemical libraries: Madin-Darby Canine Kidney epithelial cells (MDCK) expressing monomeric green fluorescent protein (mGFP)-tagged C-terminal region of K- or H-ras (GFP-CTK and GFP-CTH) were seeded in 96 well plates and treated with drug libraries for 48 h. Cells were then fixed with paraformaldehyde and imaged by BD Pathway Imager in confocal mode; shown are representative images of cells treated with vehicle, […], and 10 μM FTI-276; wherein experimentation was performed in accordance with principles described herein;
In accordance with some embodiments described herein, wild type MDCK cells or MDCK cells expressing monomeric green fluorescent protein (mGFP)-tagged C-terminal region of K-ras or H-ras (GFP-CTK and GFP-CTH respectively) were seeded in triplicate in 96 well plates (Matrical) at a density of 30,000 cells/well and incubated for 24 h at 37° C. Compounds were individually added to test cells at a concentration of 4 μg/mL (concentration of DMSO 1%) and incubated for a further 48 h.
Cells were then fixed with 4% paraformaldehyde and stored in PBS at 4° C. until imaged. Plates were imaged using a BD Pathway High-Throughput Bioimager. Images were acquired by a 3×3 montage with 20× objective lens using GFP-confocal mode. […]

For series [6], the system named is tumor cell lines expressing oncogenic mutant or wild-type K-Ras. Briefly: Proliferation assay (MTS), panel of pancreatic, endometrial, lung and colon tumor cell lines. It is filed as cell-based. As to conditions: 72 h, various concentrations. On the procedure: (§3) (A) A panel of wild-type (WT) or oncogenic mutant (Mut) K-Ras-expressing tumor cells were seeded in 96-well plates and treated for 72 h with vehicle (DMSO) or various concentrations of fendiline. […] The graphs show relative mean numbers of viable cells±SEMs from 3 independent experiments. Cell lines expressing oncogenic mutant K-Ras are shown in red, and cell lines that express wild-type K-Ras are shown in black. NCI H1299 cells (shown in blue) express wild-type K-Ras but mutant N-Ras. CaCO-2 cells (shown in green) overexpress wild-type K-Ras. (B) K-Ras levels in whole-cell lysates of SNU-C1, CaCO-2, and SK-CO-1 cells were quantified by Western blotting. The graphs show means±SEMs for 3 isolates of each cell line (indicated as 1, 2, and 3). K-Ras expression was normalized to the SNU-C1 sample.
(§4) After 24 h, fresh growth medium supplemented with 1% vehicle (DMSO), various concentrations of fendiline, or U0126 was added and cells were grown for 48 h or 72 h.

In series [7] the test system is CaCO-2 colon cancer cell line. In words: Proliferation assay (MTS), CaCO-2. As to conditions: 72 h; wild type K-Ras, overexpressed. It counts as cell-based. On the procedure: as §3, §4
Series [8] has as its system SNU-C1 cells. In words: Proliferation assay (MTS), SNU-C1. It is filed as cell-based. As to conditions: 72 h; wild type K-Ras. On the procedure: as §3, §4
For series [9], the system named is K-Ras-transformed Hec1A cells. In words: Proliferation assay (MTS), Hec-1a, fendiline versus U0126. As to conditions: 48 h, single dose of fendiline, U0126 renewed every 24 h.
Experimental: The number of viable cells was quantified (absorbance at 490 nm) using the CellTiter 96 AQueous One Solution cell proliferation assay kit (Promega). […] Cell numbers were normalized to the corresponding vehicle-treated control. Statistical significance was calculated using Student's t test (*, P<0.05). […] Cell numbers were quantified using the CellTiter 96 AQueous One Solution cell proliferation assay (MTS) (Promega), according to the manufacturer's protocol.

T1 sequence (P01112 166-189 limits assumed): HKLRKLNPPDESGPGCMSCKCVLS

Take `CSCC[C@H](NC(=O)c1ccc(NC[C@@H](N)CS)cc1-c1ccccc1)C(=O)O` [FTI-276]: in [1] (10 μM FTI-276, MDCK), the “localization of GFP-CTH” value was “causes cytoplasmic localization of GFP-CTH”.

Consider `C[C@H](CCC(=O)O)C[C@H](C)C[C@H](C)C(=O)/C=C(\O)[C@H](C)C[C@H](C)C/C=C/[C@@H](C)[C@@H](O)[C@@H](C)[C@@H](O)C[C@@H]1CC[C@@](C)([C@H]2CC[C@@](C)([C@@H](C)O)O2)O1` [Ionomycin, ionomycin], for which the “localization of Ras proteins (fractionation)” value in [2] (ionomycin 1 μM, GFP-K-rasG12V or GFP-H-rasG12V) is reported as “did not significantly alter the localization of Ras proteins”. The “effect on Ras signaling” value in series [3] is “None of the other Ca^2+ channel blockers tested or ionomycin had any effect on Ras signaling”. For the molecule `N#CC(=C(/N)Sc1ccccc1N)/C(C#N)=C(\N)Sc1ccccc1N` [U0126], the “inhibition of MAPK activation (pERK levels), relative potency” value in series [4] is listed as “much more potent than fendiline”. Consider `CN[C@@H]1C[C@H]2O[C@@](C)([C@@H]1OC)n1c3ccccc3c3c4c(c5c6ccccc6n2c5c31)C(=O)N[C@@H]4O` [UCN-01], for which the “localization of GFP-CTK” value in series [5] was “causes mislocalization of both GFP-CTK and GFP-CTH”. Moreover, in [1] (250 ng/mL UCN-01, MDCK), the “localization of GFP-CTH” value was “causes mislocalization of both GFP-CTK and GFP-CTH”. Regarding `COc1ccc([C@@H]2Sc3ccccc3N(CCN(C)C)C(=O)[C@@H]2OC(C)=O)cc1` [diltiazem], the “localization of GFP-K-rasG12V (fractionation)” value in [2] (other Ca2+ channel blockers, 10 μM) is “None of the other Ca^2+ channel blockers altered the localization of GFP-K-rasG12V”. Take `CC(NCCC(c1ccccc1)c1ccccc1)c1ccccc1` (centres unmarked) [fendiline, 3,3-diphenyl-N-(1-phenylethyl)propan-1-amine]: the “inhibition of proliferation, oncogenic mutant versus wild-type K-Ras tumor cells” value in series [6] is reported as “more potently inhibited the proliferation of tumor cells that express oncogenic mutant K-Ras than tumor cells that express wild-type K-Ras”. For the same molecule, the “inhibition of proliferation of CaCO-2” value in series [7] was “potently inhibited”. The “inhibition of proliferation of SNU-C1” value in series [8] was “unresponsive”. The “inhibition of cell proliferation, relative potency” value in series [9] is “significantly more potent than U0126”.
